The target of one data set is T1, DDR2 (Homo sapiens, UniProt Q16832).
T1 construct: purchased Invitrogen (c-Met, TRKA, TRKB, TRKC)
The data set can be described thus: HTRF/ADP-Glo kinase selectivity panel. To be noted: 500 nM, read-out: 1D228(%inhibition)@500nM. The data set is classed as biochemical. As to the method:
(§1) The compound was serial diluted from 10 mM stock in DMSO, dilute the test compound to 0.1 mM (200 times the specified test concentration). 2 × ATP & Substrate solution and 2 × kinase & Metal solution were prepared using assay buffer; Transfer 25 nL compound to 384 assay plate by Echo 655; After centrifugation, add 2.5 μL 2 × kinase/metal ion solution 384 assay plate, and incubate at 25 °C for 10 min. 2 × XL665 & Antibody solution were prepared with detection buffer; 5 μL of Kinase Detection Reagent was added to the well, and incubated for 60 min at 25 °C; The fluorescence signals of 620 nm (Cryptate) and 665 nm (XL665) were read by microtiter plate reader; […]
On the technique in general: In TR-FRET formats the signal depends on donor and acceptor labels being close together.

A further data set has as its target T2, EPHA3 (Homo sapiens, UniProt P29320).
T2 construct: purchased Invitrogen (c-Met, TRKA, TRKB, TRKC)
The data set can be described thus: HTRF/ADP-Glo kinase selectivity panel. The data set is classed as biochemical. The settings on record: 500 nM, read-out: 1D228(%inhibition)@500nM. As to the method: as §1

The next data set concerns the target T3, FGFR3 (Homo sapiens, UniProt P22607).
T3 construct: purchased Invitrogen (c-Met, TRKA, TRKB, TRKC)
In words: HTRF/ADP-Glo kinase selectivity panel. The settings on record: 500 nM, read-out: 1D228(%inhibition)@500nM. The data set is classed as biochemical. As for the experimental part: as §1

The target of the next data set is T4, FLT3 (Homo sapiens, UniProt P36888).
T4 construct: purchased Invitrogen (c-Met, TRKA, TRKB, TRKC)
T4 sequence (P36888 27-993): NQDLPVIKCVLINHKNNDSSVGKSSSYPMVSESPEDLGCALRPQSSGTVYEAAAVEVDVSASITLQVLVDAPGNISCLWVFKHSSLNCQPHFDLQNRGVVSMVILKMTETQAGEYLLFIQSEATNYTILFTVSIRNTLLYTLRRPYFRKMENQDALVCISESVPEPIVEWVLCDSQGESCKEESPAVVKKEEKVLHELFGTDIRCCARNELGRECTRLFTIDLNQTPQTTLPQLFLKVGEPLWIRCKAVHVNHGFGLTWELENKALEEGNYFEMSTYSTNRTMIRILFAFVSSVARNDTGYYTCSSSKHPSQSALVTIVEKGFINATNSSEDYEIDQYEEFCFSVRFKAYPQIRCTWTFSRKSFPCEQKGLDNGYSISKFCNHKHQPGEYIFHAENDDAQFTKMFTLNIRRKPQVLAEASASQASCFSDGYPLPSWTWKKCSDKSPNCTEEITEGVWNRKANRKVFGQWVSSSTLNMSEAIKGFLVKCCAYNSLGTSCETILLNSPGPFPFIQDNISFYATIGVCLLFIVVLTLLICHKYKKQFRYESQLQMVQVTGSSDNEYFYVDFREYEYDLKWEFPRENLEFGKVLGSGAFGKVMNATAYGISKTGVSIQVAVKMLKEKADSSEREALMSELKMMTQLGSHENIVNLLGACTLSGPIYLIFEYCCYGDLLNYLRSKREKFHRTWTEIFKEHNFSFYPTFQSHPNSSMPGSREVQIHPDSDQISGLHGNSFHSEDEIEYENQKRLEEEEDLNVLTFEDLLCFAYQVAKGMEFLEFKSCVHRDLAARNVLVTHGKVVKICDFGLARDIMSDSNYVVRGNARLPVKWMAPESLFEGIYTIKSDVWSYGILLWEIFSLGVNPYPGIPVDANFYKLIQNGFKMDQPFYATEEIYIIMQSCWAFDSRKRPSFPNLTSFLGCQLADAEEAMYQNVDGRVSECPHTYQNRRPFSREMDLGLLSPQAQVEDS
The data set can be described thus: HTRF/ADP-Glo kinase selectivity panel. The data set is classed as biochemical. The settings on record: 500 nM, read-out: 1D228(%inhibition)@500nM. As for the experimental part:
as §1

Another data set addresses T5, MER (Homo sapiens, UniProt Q12866).
T5 construct: purchased Invitrogen (c-Met, TRKA, TRKB, TRKC)
The data set can be described thus: HTRF/ADP-Glo kinase selectivity panel. The settings on record: 500 nM, read-out: 1D228(%inhibition)@500nM. The data set is classed as biochemical. As to the method:
as §1

The target in the next data set is T6, PDGFRβ (Homo sapiens, UniProt P09619).
T6 construct: purchased Invitrogen (c-Met, TRKA, TRKB, TRKC)
The data set can be described thus: HTRF/ADP-Glo kinase selectivity panel. To be noted: 500 nM, read-out: 1D228(%inhibition)@500nM. It is filed as biochemical. As for the experimental part:
as §1

For the next data set, the target named is T7, PYK2 (Homo sapiens, UniProt Q14289).
T7 construct: purchased Invitrogen (c-Met, TRKA, TRKB, TRKC)
In words: HTRF/ADP-Glo kinase selectivity panel. To be noted: 500 nM, read-out: 1D228(%inhibition)@500nM. It is filed as biochemical. As for the experimental part: as §1

The target in a further data set is T8, TXK (Homo sapiens, UniProt P42681).
T8 construct: purchased Invitrogen (c-Met, TRKA, TRKB, TRKC)
T8 sequence (P42681 whole entry): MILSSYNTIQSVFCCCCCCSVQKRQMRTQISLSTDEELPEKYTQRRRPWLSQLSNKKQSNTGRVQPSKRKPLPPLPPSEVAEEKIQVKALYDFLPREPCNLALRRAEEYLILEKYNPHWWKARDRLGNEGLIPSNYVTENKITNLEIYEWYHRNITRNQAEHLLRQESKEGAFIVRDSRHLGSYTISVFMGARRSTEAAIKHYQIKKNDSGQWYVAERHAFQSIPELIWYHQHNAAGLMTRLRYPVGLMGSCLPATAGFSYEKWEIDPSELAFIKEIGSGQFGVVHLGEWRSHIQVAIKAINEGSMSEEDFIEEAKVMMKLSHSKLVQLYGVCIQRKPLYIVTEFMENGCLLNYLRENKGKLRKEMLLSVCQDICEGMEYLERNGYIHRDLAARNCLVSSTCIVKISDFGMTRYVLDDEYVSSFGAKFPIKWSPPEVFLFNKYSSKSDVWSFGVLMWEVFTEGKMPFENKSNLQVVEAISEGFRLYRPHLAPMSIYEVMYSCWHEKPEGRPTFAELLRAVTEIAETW
In words: HTRF/ADP-Glo kinase selectivity panel. The data set is classed as biochemical. To be noted: 500 nM, read-out: 1D228(%inhibition)@500nM. As for the experimental part: as §1

A further data set addresses T9, ZAP70 (Homo sapiens, UniProt P43403).
T9 construct: purchased Invitrogen (c-Met, TRKA, TRKB, TRKC)
The data set can be described thus: HTRF/ADP-Glo kinase selectivity panel. The settings on record: 500 nM, read-out: 1D228(%inhibition)@500nM. It is filed as biochemical. As for the experimental part:
as §1

A further data set has as its target T10, TRKA (Homo sapiens, UniProt P04629).
T10 construct: purchased Invitrogen (c-Met, TRKA, TRKB, TRKC)
In words: HTRF kinase assay. It is filed as biochemical. As for the experimental part:
(§2) HTRF kinase assay to test the activity of compound 1D228 on c-Met and NTRK kinases: c-Met, TRKA, TRKB and TRKC as well as the Zˊ-Lyte kinase Kit were purchased from Invitrogen. The experiments were performed according to the instructions of the manufacturer. Concentrations consisting of 2 or 10 levels from 0.001 to 1 mM were used for 1D228. Plate was measured on multifunction microplate reader (Molecular Devices, Flex Station 3). Curve fitting and data presentations were performed using Graph Pad Prism version 5.0. Every experiment was repeated at least 3 times.

The next data set deals with T11, TRKB (Homo sapiens, UniProt Q16620).
T11 construct: purchased Invitrogen
In words: HTRF kinase assay. The data set is classed as biochemical. As for the experimental part: as §2

The target of a further data set is T12, TRKC (Homo sapiens, UniProt Q16288).
T12 construct: purchased Invitrogen (c-Met, TRKA, TRKB, TRKC)
T12 sequence (Q16288 32-839): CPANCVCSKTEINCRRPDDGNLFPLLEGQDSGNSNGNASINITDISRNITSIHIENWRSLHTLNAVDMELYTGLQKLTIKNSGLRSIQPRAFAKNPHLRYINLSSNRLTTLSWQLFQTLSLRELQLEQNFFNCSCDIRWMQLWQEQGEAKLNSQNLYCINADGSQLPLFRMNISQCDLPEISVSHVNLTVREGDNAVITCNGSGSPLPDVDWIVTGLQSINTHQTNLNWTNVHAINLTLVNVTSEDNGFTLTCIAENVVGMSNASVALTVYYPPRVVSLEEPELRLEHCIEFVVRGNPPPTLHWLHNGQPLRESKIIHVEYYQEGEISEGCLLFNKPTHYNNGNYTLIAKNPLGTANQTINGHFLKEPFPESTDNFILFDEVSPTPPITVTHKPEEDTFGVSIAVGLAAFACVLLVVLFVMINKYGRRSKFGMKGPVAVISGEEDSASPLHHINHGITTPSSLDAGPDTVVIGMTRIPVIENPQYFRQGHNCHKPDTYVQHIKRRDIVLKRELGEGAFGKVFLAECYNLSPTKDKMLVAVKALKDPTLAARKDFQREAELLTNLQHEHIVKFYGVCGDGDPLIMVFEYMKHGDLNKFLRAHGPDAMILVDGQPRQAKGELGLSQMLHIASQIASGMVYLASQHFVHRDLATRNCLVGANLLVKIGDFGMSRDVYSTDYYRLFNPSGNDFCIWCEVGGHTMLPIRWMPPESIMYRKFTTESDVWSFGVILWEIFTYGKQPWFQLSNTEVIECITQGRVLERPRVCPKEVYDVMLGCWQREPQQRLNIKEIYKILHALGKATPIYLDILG
The data set can be described thus: HTRF kinase assay. It is filed as biochemical. As for the experimental part: as §2

In another data set the target is T13, c-Met kinase (Homo sapiens, UniProt P08581).
T13 construct: purchased Invitrogen
In words: HTRF kinase assay. It is filed as biochemical. As for the experimental part:
as §2

The subject of data set [1] is MKN45 xenograft tumor. In words: MKN45 xenograft tumor model. It is filed as in vivo, BALB/c nude mice. To be noted: ig. As to the method:
Male BALB/c nude mice (5-week old, 18–20 g) were purchased from Beijing Vital River Laboratory Animal Technology (Beijing Vital River LaboratoryAnimal Technology Co., Ltd., Beijing,China) and allowed to acclimate for 1 week, maintained at constant room temperature and fed a standard rodent chow and water. 1 × 10^7 cells/mL cancer cells grown in logarithmic phase were harvested and resuspended in FBS-free 1640 medium. Then, 100 μL of the cell suspension was subcutaneously injected into the right flank of each mouse. When the tumour volume was reached about 600–800 mm^3, it was removed, minced into small pieces of equal volume (2 × 2 × 2 mm^3), and transplanted subcutaneously into the nude mice. When the tumour volume was reached about 200–400 mm^3, the xenograft tumour-bearing nude mice were randomly allocated to five groups (vehicle-treated, 1D228-2mgd-treated, 1D228-4mgd-treated […] Tepotinib-treated groups, with 6 or 8 mice (The number of mice were determined according to previous experience on xenograft tumor models) per group. Each group was dosed by intragastric administration (ig) for 7–14 days. Tumour volume and body weights were recorded every day after drug treatment. At the end of the observation period, the animals were euthanized by cervical dislocation and the tumour bulks were peeled off conformed to the Guide for the Care and Use of Laboratory Animals as published by the US National Institutes of Health (NIH Publication No. 85-23, revised 1996) and approved by the Institutional Ethics Review Board of Binzhou Medical University. There was no blinding was done during the animal experiment. No animals were excluded from the analysis.

For data set [2], the system named is MKN45 xenograft tumor. The data set can be described thus: MKN45 xenograft: 1D228 alone versus Tepotinib and Larotrectinib. The data set is classed as in vivo, nude mouse. As to the method: Male BALB/c nude mice (5-week old, 18–20 g) were purchased from Beijing Vital River Laboratory Animal Technology (Beijing Vital River LaboratoryAnimal Technology Co., Ltd., Beijing,China) and allowed to acclimate for 1 week, maintained at constant room temperature and fed a standard rodent chow and water. 1 × 10^7 cells/mL cancer cells grown in logarithmic phase were harvested and resuspended in FBS-free 1640 medium. Then, 100 μL of the cell suspension was subcutaneously injected into the right flank of each mouse. When the tumour volume was reached about 600–800 mm^3, it was removed, minced into small pieces of equal volume (2 × 2 × 2 mm^3), and transplanted subcutaneously into the nude mice. […]

Another data set concerns MNK45 cell line. The data set can be described thus: Apoptosis assay, annexin V and PI staining, flow cytometry. The settings on record: control group 5%. The data set is classed as cell-based, human. As for the experimental part:
MHCC97H or MKN45 cells were seeded in 6-well plates (3 × 10^4 cells/well) and incubated in the presence or absence of compound 1D228, for the cell apoptosis assay, cells were harvested and incubated with 5 μL of Annexin-V/FITC (Keygen Biotech, China) in binding buffer (10 mM HEPES, 140 mM NaCl, and 2.5 mM CaCl2 at pH 7.4) at room temperature for 15 min. PI solution was then added to the medium for another 10 min-incubation. Almost 10,000 events were collected for each sample and analysed by flow cytometry (Beckman Coulter, Epics XL). For the cell cycle assay, cells were fixed in ice-cold 70% ethanol overnight. After the ethanol was removed the next day, the cells were re-suspended in ice-cold PBS, treated with RNAse A (Keygen Biotech, China) at 37 °C for 30 min, and then incubated with the DNA staining solution propidium iodide (PI, Keygen Biotech, China) at 4 °C for 30 min. Approximately 10,000 events were detected by flow cytometry (Beckman Coulter, Epics XL) at 488 nm. The data regarding the number of cells in different phases of the cell cycle were analysed using EXPO32 ADC analysis software.
Background: A flow cytometer gives signals particle by particle.

Data set [3] is described as follows: Hematoxylin and eosin histology of major tissues. The data set is classed as in vivo. The settings on record: following various treatments. As to the method: Female and male Kunming mice (36 mice each, 18 ~ 25 g) were purchased and housed at the SPF (Beijing) Biotechnology Co. in pathogen-free condition, maintained at constant room temperature and fed a standard rodent chow and water. The mice were randomly divided into experimental group and control group. […]. The heart, liver, lung and kidney of mice in the 750 mg/kg dose group were taken and fixed for HE staining.

These results are taken from paper PMC10636171 (Cell Death & Disease, 2023).

pIC50: −log10 of the molar value.

T1 sequence (Q16832 22-855): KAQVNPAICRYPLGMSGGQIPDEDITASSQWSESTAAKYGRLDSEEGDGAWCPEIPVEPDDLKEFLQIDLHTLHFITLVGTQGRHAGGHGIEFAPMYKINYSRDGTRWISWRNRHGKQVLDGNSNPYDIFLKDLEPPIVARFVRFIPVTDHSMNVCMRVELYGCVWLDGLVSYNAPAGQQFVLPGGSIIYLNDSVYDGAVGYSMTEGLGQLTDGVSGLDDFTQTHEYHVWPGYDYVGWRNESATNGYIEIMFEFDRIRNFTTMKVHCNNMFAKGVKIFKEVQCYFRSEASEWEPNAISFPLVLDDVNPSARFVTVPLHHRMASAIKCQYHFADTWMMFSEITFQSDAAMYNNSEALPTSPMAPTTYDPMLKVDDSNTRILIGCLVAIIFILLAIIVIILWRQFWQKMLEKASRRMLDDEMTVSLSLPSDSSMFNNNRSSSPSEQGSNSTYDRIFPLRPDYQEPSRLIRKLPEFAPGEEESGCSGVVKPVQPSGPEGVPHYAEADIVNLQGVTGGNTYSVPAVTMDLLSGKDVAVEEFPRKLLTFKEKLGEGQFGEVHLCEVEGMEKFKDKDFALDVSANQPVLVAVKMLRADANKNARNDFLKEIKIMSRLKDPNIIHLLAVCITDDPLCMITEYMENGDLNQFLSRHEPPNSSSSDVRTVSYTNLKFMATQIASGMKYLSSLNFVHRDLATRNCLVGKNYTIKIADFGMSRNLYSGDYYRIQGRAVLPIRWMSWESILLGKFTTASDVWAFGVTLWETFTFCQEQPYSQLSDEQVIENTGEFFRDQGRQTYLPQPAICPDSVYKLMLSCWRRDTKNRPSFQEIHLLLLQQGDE
T3 sequence (P22607 23-806): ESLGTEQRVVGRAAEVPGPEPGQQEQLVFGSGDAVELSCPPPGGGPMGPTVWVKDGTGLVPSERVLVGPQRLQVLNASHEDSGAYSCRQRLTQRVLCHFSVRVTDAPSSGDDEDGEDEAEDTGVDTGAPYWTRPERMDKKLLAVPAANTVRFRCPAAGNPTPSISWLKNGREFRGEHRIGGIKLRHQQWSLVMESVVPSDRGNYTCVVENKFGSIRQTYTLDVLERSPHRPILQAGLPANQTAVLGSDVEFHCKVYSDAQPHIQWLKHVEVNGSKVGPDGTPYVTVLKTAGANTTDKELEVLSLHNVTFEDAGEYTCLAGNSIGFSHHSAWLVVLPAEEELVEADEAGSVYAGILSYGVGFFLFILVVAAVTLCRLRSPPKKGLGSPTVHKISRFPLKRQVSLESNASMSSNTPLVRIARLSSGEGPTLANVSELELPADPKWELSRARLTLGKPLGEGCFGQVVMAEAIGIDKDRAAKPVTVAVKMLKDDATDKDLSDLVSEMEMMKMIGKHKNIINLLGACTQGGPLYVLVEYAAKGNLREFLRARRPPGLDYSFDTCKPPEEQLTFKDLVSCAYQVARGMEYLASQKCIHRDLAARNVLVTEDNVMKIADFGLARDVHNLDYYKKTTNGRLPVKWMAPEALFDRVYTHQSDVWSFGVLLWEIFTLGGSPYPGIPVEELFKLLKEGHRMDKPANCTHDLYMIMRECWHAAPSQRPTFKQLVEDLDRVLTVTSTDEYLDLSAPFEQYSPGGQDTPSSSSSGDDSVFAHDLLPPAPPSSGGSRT
T5 sequence (Q12866 21-999): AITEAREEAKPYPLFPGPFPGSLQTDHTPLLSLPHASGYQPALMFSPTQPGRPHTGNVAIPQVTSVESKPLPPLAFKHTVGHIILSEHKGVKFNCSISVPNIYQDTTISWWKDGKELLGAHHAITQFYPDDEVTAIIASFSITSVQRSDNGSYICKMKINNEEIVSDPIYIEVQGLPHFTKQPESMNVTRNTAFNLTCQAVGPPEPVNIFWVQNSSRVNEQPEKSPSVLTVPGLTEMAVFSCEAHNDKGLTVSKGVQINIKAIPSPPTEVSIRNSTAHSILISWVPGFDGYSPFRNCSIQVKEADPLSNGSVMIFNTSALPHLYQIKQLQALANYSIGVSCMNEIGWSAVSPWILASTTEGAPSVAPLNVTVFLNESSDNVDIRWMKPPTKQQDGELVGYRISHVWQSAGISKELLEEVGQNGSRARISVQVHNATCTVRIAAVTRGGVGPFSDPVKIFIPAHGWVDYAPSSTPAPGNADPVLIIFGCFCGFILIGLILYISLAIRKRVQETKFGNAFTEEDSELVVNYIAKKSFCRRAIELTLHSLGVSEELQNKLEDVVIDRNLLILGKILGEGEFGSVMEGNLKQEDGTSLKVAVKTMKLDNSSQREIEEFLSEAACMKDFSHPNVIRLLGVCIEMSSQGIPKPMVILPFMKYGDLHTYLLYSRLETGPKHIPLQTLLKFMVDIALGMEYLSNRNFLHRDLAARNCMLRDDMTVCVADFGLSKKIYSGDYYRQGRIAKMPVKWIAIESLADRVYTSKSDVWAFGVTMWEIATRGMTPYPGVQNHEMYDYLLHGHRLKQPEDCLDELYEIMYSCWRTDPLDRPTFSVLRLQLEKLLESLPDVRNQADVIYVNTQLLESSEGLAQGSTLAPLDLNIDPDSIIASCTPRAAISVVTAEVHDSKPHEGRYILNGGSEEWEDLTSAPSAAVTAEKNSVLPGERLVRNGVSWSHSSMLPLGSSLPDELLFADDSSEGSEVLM

What is called inhibition is the relative decrease from the control value, in per cent. As usually defined, the pIC50 is the IC50 on a negative log10 scale, so that one unit is a factor of ten. Lower therefore signals a large IC50. Usually TGI stands for the reduction of tumour growth relative to the control group. As for `[2H][C@@](C)(c1cccc(-c2ncc(OCC3CCN(C)CC3)cn2)c1)n1nc(-c2cccc(C#N)c2)ccc1=O` [1D228], the inhibition at 0.5 µM was -3.98% on DDR2; -11.8% on EPHA3; 3.05% on FGFR3; 17.9% at FLT3; 84.1% on MER; -3.95% at PDGFRβ. Besides, the inhibition at 0.5 µM on PYK2 is 1.14%; on TXK it was 1.29%; on ZAP70 it was -0.66%. Besides, the pIC50 against TRKA was 6.95; at TRKB, 7.63; on TRKC it was 7.59; against c-Met kinase it was 9.01. Moreover, the TGI in the data set with MKN45 xenograft tumor [1] (2 mg/kg/d) was determined as 74.4%; in the data set with MKN45 xenograft tumor [1] (4 mg/kg/d), 90.7%; with MKN45 xenograft tumor [1] (8 mg/kg/d) it was 94.8%. In the data set on MKN45 xenograft tumor [2] (MKN45 gastric cancer nude mouse transplant tumor), this molecule registered a Tumor volume reduction of around 90%. Moreover, the “Body weight of tumor bearing mice” value with MKN45 xenograft tumor [2] (MKN45 xenograft) is given as “the opposite was true”. In the data set on MNK45 cell line (annexin V / PI staining), the Apoptosis is 53–75%. For the same molecule, the “Apoptosis, times higher than in the control group” value in the data set on MNK45 cell line is recorded as 10–15 times. In addition, in [3], the “Toxicity in H&E-stained heart, liver, lung and kidney” value is given as “no evidence of toxicity”.
